Laboratory results: PMC9329436, “Optimization of the 4-anilinoquin(az)oline scaffold as epidermal growth factor receptor (EGFR) inhibitors for chordoma utilizing a toxicology profiling assay platform” (Scientific Reports, 2022)
Like-named read-outs stand apart in the source and are kept apart here.

Legend:
Format in all cases: biochemical
[1] = target: 320 wild-type protein kinases (Homo sapiens, UniProt P29597); details: kinase TYK2, singlicate
Text: (§1) Table S4. Profiling of two compounds at two concentrations against 320 wild-type protein kinases; singlicate measurement; Residual activities (% of control).

[2] = target: T1, 320 wild-type protein kinases (Homo sapiens, UniProt P35626); details: singlicate
T1 sequence (P35626 1-688): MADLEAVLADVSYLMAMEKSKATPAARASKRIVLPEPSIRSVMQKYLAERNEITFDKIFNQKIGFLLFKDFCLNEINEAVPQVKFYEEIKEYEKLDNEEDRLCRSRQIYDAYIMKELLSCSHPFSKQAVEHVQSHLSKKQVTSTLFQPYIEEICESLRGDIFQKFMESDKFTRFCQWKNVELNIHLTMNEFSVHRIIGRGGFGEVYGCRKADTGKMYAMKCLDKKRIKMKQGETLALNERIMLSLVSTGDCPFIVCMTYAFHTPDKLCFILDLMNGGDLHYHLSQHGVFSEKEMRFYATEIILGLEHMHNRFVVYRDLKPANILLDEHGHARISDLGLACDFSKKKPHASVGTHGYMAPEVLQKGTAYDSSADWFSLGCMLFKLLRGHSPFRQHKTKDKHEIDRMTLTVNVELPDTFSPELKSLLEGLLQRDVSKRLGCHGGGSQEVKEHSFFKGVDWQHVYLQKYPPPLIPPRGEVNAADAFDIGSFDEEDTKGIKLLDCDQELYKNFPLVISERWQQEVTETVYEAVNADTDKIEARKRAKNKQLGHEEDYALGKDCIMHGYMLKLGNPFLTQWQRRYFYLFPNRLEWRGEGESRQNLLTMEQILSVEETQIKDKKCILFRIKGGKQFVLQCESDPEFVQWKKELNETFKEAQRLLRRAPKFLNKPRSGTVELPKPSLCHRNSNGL
Text: as §1

[3] = target: 320 wild-type protein kinases (Homo sapiens, UniProt Q00535); details: singlicate
Text: as §1

[4] = target: T2, 320 wild-type protein kinases (Homo sapiens, UniProt Q15139); details: PKC-mu, singlicate
T2 sequence (Q15139 1-912): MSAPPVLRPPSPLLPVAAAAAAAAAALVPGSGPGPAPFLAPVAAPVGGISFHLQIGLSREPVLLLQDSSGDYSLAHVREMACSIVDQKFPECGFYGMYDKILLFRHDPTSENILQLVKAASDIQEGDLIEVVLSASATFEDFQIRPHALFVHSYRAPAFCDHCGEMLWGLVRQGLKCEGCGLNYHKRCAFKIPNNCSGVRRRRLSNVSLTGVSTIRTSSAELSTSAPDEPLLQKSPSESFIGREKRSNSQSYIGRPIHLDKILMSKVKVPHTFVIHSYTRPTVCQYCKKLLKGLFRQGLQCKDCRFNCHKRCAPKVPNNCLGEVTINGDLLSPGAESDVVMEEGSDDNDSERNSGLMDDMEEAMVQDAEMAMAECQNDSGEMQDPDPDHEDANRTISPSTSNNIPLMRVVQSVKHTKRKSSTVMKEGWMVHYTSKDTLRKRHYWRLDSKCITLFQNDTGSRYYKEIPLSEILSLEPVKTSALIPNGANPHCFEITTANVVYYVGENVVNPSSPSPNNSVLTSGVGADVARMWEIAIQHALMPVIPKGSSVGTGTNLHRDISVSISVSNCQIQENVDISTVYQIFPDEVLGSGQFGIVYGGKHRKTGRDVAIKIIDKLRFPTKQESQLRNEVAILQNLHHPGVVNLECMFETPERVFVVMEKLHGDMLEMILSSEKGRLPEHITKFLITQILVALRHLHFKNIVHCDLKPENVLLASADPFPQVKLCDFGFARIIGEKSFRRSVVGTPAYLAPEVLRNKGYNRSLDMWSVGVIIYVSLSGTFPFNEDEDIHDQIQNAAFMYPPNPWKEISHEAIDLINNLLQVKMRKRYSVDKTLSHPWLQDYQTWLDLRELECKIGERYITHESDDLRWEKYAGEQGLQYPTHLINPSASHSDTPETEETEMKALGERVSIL
Text: as §1

[5] = target: T3, 320 wild-type protein kinases (Homo sapiens, UniProt Q32MK0); details: singlicate
T3 sequence (Q32MK0 1-819): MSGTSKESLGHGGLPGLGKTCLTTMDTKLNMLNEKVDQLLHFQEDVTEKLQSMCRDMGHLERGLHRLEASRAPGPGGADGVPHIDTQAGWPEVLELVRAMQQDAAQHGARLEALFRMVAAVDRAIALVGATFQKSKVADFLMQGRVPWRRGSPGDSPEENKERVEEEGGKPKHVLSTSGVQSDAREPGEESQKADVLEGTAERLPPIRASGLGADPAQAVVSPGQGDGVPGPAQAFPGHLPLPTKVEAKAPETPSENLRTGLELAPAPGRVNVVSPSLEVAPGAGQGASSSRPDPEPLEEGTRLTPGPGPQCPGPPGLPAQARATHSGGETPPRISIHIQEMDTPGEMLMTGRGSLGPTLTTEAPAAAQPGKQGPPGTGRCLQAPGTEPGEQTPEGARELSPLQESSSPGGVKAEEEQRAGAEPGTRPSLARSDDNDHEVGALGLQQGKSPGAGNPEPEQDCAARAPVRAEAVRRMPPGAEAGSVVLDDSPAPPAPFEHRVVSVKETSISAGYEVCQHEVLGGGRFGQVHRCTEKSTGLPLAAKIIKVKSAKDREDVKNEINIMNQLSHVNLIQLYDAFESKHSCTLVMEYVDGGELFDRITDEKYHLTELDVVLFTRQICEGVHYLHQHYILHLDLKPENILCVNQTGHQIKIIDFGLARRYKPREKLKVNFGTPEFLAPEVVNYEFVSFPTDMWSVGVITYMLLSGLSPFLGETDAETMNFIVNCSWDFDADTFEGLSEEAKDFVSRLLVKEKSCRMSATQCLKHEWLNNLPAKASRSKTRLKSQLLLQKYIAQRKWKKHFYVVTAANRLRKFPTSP
Text: as §1

[6] = target: 320 wild-type protein kinases (Homo sapiens, UniProt Q9H4A3); details: kinase WNK1, singlicate
Text: as §1

[7] = target: 320 wild-type protein kinases (Homo sapiens, UniProt Q9P0L2); details: singlicate
Text: as §1

Sequence of 320 wild-type protein kinases (Homo sapiens, UniProt P29597) (P29597 whole entry): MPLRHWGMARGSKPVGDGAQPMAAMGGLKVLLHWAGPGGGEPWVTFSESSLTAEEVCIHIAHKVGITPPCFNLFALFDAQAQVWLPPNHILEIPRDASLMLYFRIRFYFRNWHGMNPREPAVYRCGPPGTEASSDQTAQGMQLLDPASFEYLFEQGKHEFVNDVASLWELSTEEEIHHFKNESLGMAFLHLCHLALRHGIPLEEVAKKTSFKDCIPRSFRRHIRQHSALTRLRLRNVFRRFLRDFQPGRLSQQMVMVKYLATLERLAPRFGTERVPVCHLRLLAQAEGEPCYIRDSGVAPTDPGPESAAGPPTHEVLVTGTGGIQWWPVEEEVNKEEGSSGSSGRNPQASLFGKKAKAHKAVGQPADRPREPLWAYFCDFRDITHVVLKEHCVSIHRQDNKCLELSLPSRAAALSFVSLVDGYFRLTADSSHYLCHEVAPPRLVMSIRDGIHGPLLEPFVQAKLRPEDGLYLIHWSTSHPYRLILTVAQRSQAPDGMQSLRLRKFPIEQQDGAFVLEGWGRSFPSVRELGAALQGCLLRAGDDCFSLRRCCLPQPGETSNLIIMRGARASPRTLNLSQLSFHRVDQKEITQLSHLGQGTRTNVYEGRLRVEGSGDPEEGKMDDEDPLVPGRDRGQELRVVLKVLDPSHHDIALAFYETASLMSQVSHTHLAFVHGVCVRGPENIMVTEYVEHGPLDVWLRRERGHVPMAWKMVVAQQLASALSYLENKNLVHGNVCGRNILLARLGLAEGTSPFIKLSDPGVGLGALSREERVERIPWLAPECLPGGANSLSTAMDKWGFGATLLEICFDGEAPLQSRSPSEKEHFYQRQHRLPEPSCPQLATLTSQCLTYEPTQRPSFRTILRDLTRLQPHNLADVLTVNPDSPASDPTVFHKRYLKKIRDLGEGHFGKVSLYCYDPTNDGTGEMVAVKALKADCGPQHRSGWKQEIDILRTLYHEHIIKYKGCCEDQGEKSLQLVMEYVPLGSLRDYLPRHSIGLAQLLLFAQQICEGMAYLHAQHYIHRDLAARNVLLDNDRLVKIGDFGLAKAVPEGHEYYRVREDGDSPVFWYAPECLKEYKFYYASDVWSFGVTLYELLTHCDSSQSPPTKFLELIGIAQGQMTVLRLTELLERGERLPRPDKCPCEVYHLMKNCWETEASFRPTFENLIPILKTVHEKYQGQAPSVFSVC
Sequence of 320 wild-type protein kinases (Homo sapiens, UniProt Q9P0L2) (Q9P0L2 whole entry): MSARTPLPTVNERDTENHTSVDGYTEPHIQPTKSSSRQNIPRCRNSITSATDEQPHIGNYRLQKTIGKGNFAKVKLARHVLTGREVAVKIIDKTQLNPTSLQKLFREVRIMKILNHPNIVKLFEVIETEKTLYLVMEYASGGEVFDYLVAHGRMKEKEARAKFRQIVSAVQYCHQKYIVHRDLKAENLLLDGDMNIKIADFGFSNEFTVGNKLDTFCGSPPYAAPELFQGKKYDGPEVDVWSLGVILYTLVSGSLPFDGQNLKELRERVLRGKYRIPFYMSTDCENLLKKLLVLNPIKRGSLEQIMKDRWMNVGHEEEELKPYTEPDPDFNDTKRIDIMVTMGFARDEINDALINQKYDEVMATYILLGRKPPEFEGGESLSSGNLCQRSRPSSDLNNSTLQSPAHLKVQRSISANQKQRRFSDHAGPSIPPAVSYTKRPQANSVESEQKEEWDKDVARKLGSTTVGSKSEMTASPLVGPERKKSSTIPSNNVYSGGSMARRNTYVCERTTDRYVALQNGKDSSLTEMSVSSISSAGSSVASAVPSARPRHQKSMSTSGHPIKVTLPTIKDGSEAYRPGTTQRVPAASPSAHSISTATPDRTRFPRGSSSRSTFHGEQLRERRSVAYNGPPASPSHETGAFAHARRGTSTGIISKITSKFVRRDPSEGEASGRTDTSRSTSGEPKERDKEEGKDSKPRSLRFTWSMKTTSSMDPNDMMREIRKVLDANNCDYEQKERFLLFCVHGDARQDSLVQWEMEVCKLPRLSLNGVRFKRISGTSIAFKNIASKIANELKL
Sequence of 320 wild-type protein kinases (Homo sapiens, UniProt Q00535) (Q00535 whole entry): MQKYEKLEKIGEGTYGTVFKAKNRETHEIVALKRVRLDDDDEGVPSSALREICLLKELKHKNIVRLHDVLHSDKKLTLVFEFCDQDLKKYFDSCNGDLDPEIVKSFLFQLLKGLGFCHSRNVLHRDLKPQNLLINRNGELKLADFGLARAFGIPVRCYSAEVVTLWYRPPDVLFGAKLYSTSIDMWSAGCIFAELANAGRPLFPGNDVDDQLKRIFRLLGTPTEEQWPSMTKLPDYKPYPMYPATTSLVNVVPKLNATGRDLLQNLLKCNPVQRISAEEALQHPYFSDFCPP
Sequence of 320 wild-type protein kinases (Homo sapiens, UniProt Q9H4A3) (Q9H4A3 whole entry): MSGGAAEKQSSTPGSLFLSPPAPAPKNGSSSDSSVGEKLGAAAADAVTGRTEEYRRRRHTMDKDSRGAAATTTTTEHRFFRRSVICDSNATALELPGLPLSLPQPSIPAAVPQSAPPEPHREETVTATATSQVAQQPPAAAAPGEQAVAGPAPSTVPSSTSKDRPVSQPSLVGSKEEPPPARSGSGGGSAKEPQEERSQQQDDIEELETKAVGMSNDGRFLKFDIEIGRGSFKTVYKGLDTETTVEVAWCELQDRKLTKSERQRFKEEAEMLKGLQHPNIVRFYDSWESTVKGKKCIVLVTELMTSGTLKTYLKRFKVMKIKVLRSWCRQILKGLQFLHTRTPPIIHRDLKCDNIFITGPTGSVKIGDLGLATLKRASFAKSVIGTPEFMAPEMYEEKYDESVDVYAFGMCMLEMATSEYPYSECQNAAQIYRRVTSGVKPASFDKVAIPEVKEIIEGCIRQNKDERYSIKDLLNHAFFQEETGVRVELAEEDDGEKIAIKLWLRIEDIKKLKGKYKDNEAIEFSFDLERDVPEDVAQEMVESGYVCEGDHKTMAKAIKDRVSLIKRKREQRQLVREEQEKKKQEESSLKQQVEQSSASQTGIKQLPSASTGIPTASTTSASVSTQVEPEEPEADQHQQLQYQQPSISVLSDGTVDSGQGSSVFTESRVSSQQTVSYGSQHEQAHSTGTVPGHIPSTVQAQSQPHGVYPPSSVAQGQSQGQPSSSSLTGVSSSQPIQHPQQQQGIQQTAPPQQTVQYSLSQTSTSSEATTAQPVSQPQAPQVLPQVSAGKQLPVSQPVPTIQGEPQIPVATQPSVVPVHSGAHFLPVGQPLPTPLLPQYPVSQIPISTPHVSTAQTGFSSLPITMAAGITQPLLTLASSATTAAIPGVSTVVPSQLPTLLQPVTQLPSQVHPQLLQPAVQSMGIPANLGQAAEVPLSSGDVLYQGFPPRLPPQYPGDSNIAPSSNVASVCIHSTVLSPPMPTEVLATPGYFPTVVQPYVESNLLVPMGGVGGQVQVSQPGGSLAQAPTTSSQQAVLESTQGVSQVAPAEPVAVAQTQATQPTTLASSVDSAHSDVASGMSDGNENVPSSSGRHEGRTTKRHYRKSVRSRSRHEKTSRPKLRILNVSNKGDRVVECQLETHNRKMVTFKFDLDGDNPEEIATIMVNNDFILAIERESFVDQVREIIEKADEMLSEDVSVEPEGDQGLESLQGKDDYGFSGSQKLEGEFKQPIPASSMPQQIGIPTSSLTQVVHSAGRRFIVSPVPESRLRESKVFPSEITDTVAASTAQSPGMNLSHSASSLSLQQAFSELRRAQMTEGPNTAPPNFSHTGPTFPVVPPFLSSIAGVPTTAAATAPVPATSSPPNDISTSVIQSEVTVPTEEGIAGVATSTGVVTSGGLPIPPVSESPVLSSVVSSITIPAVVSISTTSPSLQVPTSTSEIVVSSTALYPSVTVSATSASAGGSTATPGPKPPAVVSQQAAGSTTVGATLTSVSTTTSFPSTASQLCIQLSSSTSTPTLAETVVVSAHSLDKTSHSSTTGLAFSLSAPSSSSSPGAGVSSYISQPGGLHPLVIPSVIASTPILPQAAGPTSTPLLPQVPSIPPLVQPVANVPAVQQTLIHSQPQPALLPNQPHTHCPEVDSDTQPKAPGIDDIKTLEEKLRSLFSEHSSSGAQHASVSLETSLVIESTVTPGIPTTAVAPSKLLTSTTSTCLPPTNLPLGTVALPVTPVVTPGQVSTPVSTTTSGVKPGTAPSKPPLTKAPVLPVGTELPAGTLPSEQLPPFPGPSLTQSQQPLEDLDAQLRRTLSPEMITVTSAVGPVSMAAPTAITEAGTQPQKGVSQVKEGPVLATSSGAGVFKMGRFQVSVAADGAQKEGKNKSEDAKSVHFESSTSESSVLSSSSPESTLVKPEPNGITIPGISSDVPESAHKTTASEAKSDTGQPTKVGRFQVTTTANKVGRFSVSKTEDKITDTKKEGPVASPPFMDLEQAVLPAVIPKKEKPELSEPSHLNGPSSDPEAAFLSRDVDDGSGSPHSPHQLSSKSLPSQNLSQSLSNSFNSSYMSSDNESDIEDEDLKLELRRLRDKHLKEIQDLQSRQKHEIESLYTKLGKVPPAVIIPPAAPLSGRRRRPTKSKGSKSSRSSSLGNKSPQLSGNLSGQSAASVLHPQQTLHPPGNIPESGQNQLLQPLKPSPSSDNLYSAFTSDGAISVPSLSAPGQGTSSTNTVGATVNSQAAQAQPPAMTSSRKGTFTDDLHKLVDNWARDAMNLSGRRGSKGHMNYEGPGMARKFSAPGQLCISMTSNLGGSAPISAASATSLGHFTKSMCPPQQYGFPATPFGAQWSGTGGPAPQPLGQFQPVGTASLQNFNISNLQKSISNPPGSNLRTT

SMILES | Residual activity, TYK2 ([1]; assay conc. 1.0E-06 M) | Residual activity, TYK2 ([1]; assay conc. 1.0E-07 M) | Residual activity ([2]; GRK3, 1.0E-06 M) | Residual activity ([2]; GRK3, 1.0E-07 M) | Residual activity ([3]; CDK5/p25NCK, 1.0E-06 M) | Residual activity ([3]; CDK5/p25NCK, 1.0E-07 M) | Residual activity ([3]; CDK5/p35NCK, 1.0E-06 M) | Residual activity ([3]; CDK5/p35NCK, 1.0E-07 M) | Residual activity ([4]; 1.0E-06 M) | Residual activity ([4]; 1.0E-07 M) | Residual activity ([5]; MYLK3, 1.0E-06 M) | Residual activity ([5]; MYLK3, 1.0E-07 M) | Residual activity, WNK1 ([6]; assay conc. 1.0E-06 M) | Residual activity, WNK1 ([6]; assay conc. 1.0E-07 M) | Residual activity ([7]; MARK1, 1.0E-06 M) | Residual activity ([7]; MARK1, 1.0E-07 M)
C#Cc1cc(Nc2ncnc3cc(I)ccc23)ccc1Cl [Compound 41] | 94 % of control | 101 % of control | 127 % of control | 131 % of control | 100 % of control | 119 % of control | 86 % of control | 87 % of control | 89 % of control | 111 % of control | 93 % of control | 104 % of control | 70 % of control | 84 % of control | 85 % of control | 94 % of control
C#Cc1cc(Nc2ncnc3cc(OC)c(OC)cc23)ccc1Cl [Compound 45] | 114 % of control | 96 % of control | 118 % of control | 123 % of control | 103 % of control | 98 % of control | 88 % of control | 88 % of control | 73 % of control | 92 % of control | 86 % of control | 100 % of control | 95 % of control | 93 % of control | 93 % of control | 93 % of control
